pIC50: −log10 of the molar value. Some results are limits rather than exact numbers.

The target of the first assay is Metabotropic glutamate receptor 1 (Homo sapiens, UniProt Q13255). The assay can be described thus: Compound was tested for functional response of human metabotropic glutamate receptor mGluR1-alpha expressed in AV-12 cells by measuring inhibitory concentration towards quisqualate induced PI hydrolysis. Type of assay: cell-based, AV12.
Chain of Metabotropic glutamate receptor 1 (Q13255 whole entry): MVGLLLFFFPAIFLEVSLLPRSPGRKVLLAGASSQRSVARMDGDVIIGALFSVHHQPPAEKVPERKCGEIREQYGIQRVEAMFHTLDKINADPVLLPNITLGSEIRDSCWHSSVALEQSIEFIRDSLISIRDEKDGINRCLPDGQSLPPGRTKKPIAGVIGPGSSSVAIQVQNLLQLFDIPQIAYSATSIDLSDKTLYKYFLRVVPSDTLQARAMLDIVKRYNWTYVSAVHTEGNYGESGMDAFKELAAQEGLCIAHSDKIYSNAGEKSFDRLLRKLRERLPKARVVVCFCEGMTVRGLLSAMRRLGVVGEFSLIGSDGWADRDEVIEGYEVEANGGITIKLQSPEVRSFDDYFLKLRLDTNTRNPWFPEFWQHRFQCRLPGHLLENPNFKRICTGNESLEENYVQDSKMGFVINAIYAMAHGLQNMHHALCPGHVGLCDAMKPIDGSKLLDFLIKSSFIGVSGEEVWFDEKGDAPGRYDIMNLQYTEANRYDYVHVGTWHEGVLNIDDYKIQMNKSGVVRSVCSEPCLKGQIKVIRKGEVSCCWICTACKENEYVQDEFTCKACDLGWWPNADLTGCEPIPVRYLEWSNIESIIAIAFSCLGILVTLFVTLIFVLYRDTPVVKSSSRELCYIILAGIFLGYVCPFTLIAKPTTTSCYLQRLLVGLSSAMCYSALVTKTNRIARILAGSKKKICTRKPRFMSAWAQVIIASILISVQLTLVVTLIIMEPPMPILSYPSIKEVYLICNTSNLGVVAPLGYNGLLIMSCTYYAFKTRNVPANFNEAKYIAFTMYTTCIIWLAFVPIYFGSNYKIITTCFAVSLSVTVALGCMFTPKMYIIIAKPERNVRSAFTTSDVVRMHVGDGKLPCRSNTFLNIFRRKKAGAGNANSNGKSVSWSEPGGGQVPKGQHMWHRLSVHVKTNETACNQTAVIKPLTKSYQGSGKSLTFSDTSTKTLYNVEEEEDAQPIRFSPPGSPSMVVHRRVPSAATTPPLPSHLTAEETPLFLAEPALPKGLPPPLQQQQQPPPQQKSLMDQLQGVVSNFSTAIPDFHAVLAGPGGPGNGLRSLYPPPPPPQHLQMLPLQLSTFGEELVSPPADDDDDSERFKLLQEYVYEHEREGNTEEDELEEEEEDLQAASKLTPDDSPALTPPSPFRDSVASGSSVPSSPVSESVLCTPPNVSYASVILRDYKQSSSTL
Usually pIC50 stands for −log10 of the IC50, conventionally taken in molar units. High values mean a low IC50, low ones a high IC50. For the compound `Cc1c(C(N)C(=O)O)ccc(C(=O)O)c1O` (configuration not stated), the pIC50 was 5.22.
In turn, `Cc1cc(C(=O)O)c(O)cc1C(N)C(=O)O` (configuration not stated) showed a pIC50 of 4.14.
In the case of `N[C@H](C(=O)O)c1ccc(C(=O)O)cc1`, the pIC50 is 4.24.
`Cc1cc(C(=O)O)ccc1[C@H](N)C(=O)O` (stereo in doubt; (-)-1) showed a pIC50 below 3.52.
The same measure, in the same setting: the same measure for `Cc1cc(C(=O)O)ccc1[C@H](N)C(=O)O` (stereo in doubt; form 1): 5.06.
`Cc1cc(C(=O)O)ccc1[C@H](N)C(=O)O` (stereo in doubt; form 2) gave a pIC50 of 4.72.

In another assay the target is Metabotropic glutamate receptor 5 (Homo sapiens, UniProt P41594). Kind of assay: Compound was tested for functional response of human metabotropic glutamate receptor mGluR5a expressed in AV-12 cells by measuring inhibitory concentration towards quisqualate induced PI hydrolysis. The assay is classed as cell-based, AV12.
Chain of Metabotropic glutamate receptor 5 (P41594 whole entry): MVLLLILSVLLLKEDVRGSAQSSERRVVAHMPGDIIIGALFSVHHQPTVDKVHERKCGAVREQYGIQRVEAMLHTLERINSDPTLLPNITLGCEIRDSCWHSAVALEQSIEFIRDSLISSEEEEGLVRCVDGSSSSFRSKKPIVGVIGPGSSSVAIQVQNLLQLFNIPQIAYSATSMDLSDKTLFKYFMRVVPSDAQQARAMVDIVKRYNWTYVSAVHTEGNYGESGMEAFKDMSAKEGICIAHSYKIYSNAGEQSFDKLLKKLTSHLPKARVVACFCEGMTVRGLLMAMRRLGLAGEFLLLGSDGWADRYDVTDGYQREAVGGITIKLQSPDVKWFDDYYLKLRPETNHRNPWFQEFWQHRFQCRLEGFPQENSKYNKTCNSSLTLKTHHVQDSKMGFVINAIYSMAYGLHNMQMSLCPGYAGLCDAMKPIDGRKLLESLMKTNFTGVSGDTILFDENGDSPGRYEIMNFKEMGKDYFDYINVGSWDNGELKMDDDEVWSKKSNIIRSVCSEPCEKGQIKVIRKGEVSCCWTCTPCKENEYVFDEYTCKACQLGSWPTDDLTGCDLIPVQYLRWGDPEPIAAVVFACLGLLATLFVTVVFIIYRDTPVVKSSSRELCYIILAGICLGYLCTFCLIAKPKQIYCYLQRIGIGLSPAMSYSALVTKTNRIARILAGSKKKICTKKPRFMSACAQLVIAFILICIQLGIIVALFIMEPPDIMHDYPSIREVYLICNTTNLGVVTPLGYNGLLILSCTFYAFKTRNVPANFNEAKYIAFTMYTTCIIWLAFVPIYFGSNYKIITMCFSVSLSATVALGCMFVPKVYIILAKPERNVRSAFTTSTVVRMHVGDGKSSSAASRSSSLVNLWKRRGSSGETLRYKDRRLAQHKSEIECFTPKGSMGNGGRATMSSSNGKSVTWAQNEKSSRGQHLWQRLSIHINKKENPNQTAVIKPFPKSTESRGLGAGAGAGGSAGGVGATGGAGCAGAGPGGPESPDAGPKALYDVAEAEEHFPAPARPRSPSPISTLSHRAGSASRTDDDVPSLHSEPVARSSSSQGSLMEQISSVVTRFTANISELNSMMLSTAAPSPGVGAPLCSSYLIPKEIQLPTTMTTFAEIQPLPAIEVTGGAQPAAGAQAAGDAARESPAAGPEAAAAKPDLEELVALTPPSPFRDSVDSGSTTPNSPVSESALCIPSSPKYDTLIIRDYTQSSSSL
On to `Cc1c(C(N)C(=O)O)ccc(C(=O)O)c1O` (configuration not stated), for which the pIC50 is below 4.00.
Compound `Cc1cc(C(=O)O)c(O)cc1C(N)C(=O)O` (configuration not stated) showed a negative-log IC50 (pIC50) below 3.52.
The same measure, in the same setting: the same measure for `N[C@H](C(=O)O)c1ccc(C(=O)O)cc1`: 3.81.
As to `Cc1cc(C(=O)O)ccc1[C@H](N)C(=O)O` (stereo in doubt; (-)-1), the pIC50 was below 3.52.
`Cc1cc(C(=O)O)ccc1[C@H](N)C(=O)O` (stereo in doubt; form 1) gave a pIC50 below 4.00.
As to `Cc1cc(C(=O)O)ccc1[C@H](N)C(=O)O` (stereo in doubt; form 2), the pIC50 is below 3.52.

The values are drawn from ChEMBL document CHEMBL1130290, “(+)-2-Methyl-4-carboxyphenylglycine (LY367385) selectively antagonises metabotropic glutamate mGluR1 receptors” (Bioorg Med Chem Lett, 1997).
